US6849602B1 (The Regents of the University of California, priority 1996, dated 2005)
Non-standard residues stand in square brackets, D forms with d. No end group written: not given here.

Columns and labels:
[1] = system: Newborn mouse cerebellar explants; assay: Ex vivo myelination assay in newborn mouse cerebellar explants; assay type: cell-based; details: 10 μg/ml
Procedure: Newborn mouse cerebellar explants are prepared according to Satomi, Zool. Sci. 9:127-137 (1992). Neurite outgrowth and myelination are observed over 22 days in culture, during the period when the newborn mouse cerebellum normally undergoes neuronal differentiation and myelination begins. […] Neurite outgrowth and myelination in three control and three treated explants is assessed under a bright field microscope with a video camera. On the eighth day, cultures containing the peptides are thinner and more spread out than control cultures. […] Such projections are absent or less prominent in control cultures. […] Thus, the peptide of the invention induces myelination in differentiating cerebellum ex vivo.

[2] = system: streptozotocin (STZ)-diabetic rats; assay: Formalin flinch test in streptozotocin-diabetic rats; assay type: in vivo, rat; design: hyperalgesia in formalin test / formalin-induced pain (allodynia): dose or concentration left out as unconfirmed
Procedure: Rats were made diabetic by a single intraperitoneal injection of streptozotocin (STZ) (50 mg/kg body weight, freshly dissolved in 0.9% sterile saline) to ablate pancreatic β cells and induce insulin deficiency as described in Calcutt et al., Pain 68:293-299 (1996). Two days later, diabetes was confirmed in streptozotocin-injected rats by measuring blood glucose levels. Streptozotocin-injected animals with a blood glucose concentration below 15 mmol/l were excluded from subsequent studies, according to the commonly accepted definition of non-fasting hyperglycemia in studies of diabetes in rats.
Both diabetic and control rats were studied at 8 weeks by analyzing the behavioral response to the noxious chemical formalin as an indicator of allodynia (Calcutt et al. supra (1996)). Briefly, rats received a subcutaneous injection of freshly-prepared formalin (50 μl of 0.5% solution in sterile saline) into the dorsal surface of the right hind paw. This concentration of formalin induces sub-maximal behavioral responses in control rats and allows detection of hyperalgesia in diabetic rats during phases Q and 2 (Calcutt et al., Eur. J. Pharmacol. 285:189-197 (1995). Animals were transferred to an observation chamber constructed to allow continuous visualization of the paws. The number of flinches during one minute periods were counted at 5 minute intervals for the next 60 minutes by an observer who was unaware of the treatment group of each animal. Phase 1 was defined as the initial measurement of flinching (1-2 and 5-6 minutes post injection); the Q (quiescent) phase as the measurements made at 10-11, 15-16 and 20-21 minutes; and Phase 2 as all subsequent measurements post injection, as previously defined for studies of diabetic rats (see, for example, Malmberg et al., Neurosci. […] Comparisons of activity during each phase were made by summing the flinches at measurement points within the phase. Diabetic rats gave an abnormal flinch response, as has been reported previously.
Peptide SEQ ID NO:2 was obtained in pure form by chemical synthesis, dissolved in sterile PBS and buffered to a neutral pH. Diabetic rats were divided in two groups of four animals each, which were administered saline or peptide SEQ ID NO:2, respectively.
The formalin testing was done after 4 weeks, of three time weekly injections, and testing was done after the last dose (last bar, FIG. 7).
This EXAMPLE was designed to determine whether prosaptide could also reverse conduction deficits and hyperalgesia in the formalin test pain model once these disorders are established in diabetic rats. SNCV was measured before onset of diabetes and 4-8 weeks later in groups of control, untreated diabetic and prosaptide-treated (200 μg/kg i.p. thrice weekly for the last 4 weeks) diabetic rats. Flinch responses to injection of formalin (50 μl or 0.5% or 5.0% solution) were followed for 60 min in control, 8 week untreated diabetic, […] with prosaptide (200 μg/kg i.p.) thrice weekly for the last 4 weeks (the last treatment being 48-72 hr pre-test).

[3] = system: STZ-diabetic rats; assay: Nerve function, thermal response and body weight in STZ-diabetic rats; assay type: in vivo, rat; details: for decline in SNCV between weeks 4 and 8 of diabetes: 200 μg/kg i.p. thrice weekly beginning after 4 weeks of diabetes
Procedure: Control and STZ-diabetic rats were treated using 1000 μg prosaptide TX 14(A) per kg body weights i.p., three times per week for 8 weeks.
In this EXAMPLE, control and STZ-diabetic rats were treated with prosaptide TX 14(A) at doses of 20 μg/kg, 200 μg/kg, and 1000 μg/kg body weight, i.p., three times per week for 8 weeks. The rats were weighed at the beginning, midpoint and the end of the experiment and motor nerve conduction (MNCV) and sensor nerve conduction velocity (SNCV) measurements were taken at the three time points.
These deficits were attenuated by thrice weekly treatment (1 mg/kg i.p. for 8 weeks) with prosaptide (58.1±1.2 and 54.9±1.3 respectively).
This EXAMPLE was designed to determine whether prosaptide could also reverse conduction deficits and hyperalgesia in the formalin test pain model once these disorders are established in diabetic rats. SNCV was measured before onset of diabetes and 4-8 weeks later in groups of control, untreated diabetic and prosaptide-treated (200 μg/kg i.p. thrice weekly for the last 4 weeks) diabetic rats. Flinch responses to injection of formalin (50 μl or 0.5% or 5.0% solution) were followed for 60 min in control, 8 week untreated diabetic, 8 week diabetic treated with prosaptide (200 μg/kg i.p.) 30 min pre-test and 8 week diabetic treated with prosaptide (200 μg/kg i.p.) thrice weekly for the last 4 weeks (the last treatment being 48-72 hr pre-test).

[4] = system: neuroblastoma cells; assay: Neurotrophic activity (neurite outgrowth, choline acetyltransferase, cell death); assay type: cell-based
[5] = system: taxol-treated mice; assay: Loss of thermal sensation (Hargreaves) in taxol-treated mice; assay type: in vivo, mouse; details: 100 μg/kg, 200 μg/kg or 1 mg/kg
Procedure: Mice were administered taxol in order to induce sensory neuropathy.
The loss of thermal sensation was measured using a Hargreaves sensory testing apparatus as an indicator of sensory neuropathy.

[6] = system: Selzer rat model; assay: Hyperalgesia (hot plate withdrawal) in Selzer model rats; assay type: in vivo; details: intravenous at a dose of 200 mg/kg
Procedure: After induction of hyperalgesia by ligation of the sciatic nerve in one hind limb, the animals were injected with Prosaptide TX 14(A). Relief was measured using the hot plate withdrawal technique comparing ligated vs. unligated hind foot withdrawal. […] The relief lasted for up to 48 hours post injection.

[7] = system: control rats; assay: Formalin test in control rats; assay type: in vivo, rat; details: single bolus doses of up to 1 mg/kg i.p. 30 min pre-test
[8] = 200 μg/kg intraperitoneal, two hours before 0.5% formalin
[9] = 1 mg/kg i.p. thrice weekly for 8 weeks, diabetic rats

T[dA]LIDNNATEEILY [SEQ ID NO:2] was tested, and the “myelinated axons in the subcortical white matter” value ([1]; 22 days, compared to control explants) was “significantly more myelinated axons”, the “neurite outgrowth (long projections) in explants” value ([1]; day 15) was “contain many cells with long projections at the periphery of the explant” and the “hyperalgesia during the formalin test” value ([2]; 200 μg/kg i.p. thrice weekly for the last 4 weeks, last treatment 48-72 hr pre-test) was “reduction in hyperalgesia”. The “abnormal flinch response in Phase 1” value [2, 8] was “completely prevented the abnormal flinch response”, the “amelioration of the flinch response in Phase 2” value [2, 8] was 70% and the “hyperalgesia in formalin test” value ([2]; after 8 weeks of diabetes, i.p. 30 min before testing) was “reversed the hyperalgesia”. For the same substance, the “hyperalgesia in the diabetic rat” value ([2]; given parenterally, FIG. 7) was “reverses hyperalgesia”, the “hyperalgesia during the formalin test” value ([2]; single bolus 200 μg/kg i.p. 30 min pre-test, 8 week diabetic rats) was “effective in abolishing hyperalgesia” and the “formalin-induced pain (allodynia)” value ([2]; three time weekly injections for 4 weeks) was “prevention of formalin-induced pain (allodynia)”. For the same substance, the thermal response latency ([3]; 20 μg treatment group) was “intermediate response”, the “decline in SNCV between weeks 4 and 8 of diabetes” value ([3]; listed as prosaptide) was “prevents any further decline in SNCV” and the “decline in SNCV between weeks 4 and 8 of diabetes” value ([3]; listed as prosaptide TX 14(A)) was “halts progressive slowing of sensory conduction”. For the same substance, the thermal hypoalgesia ([3]; 1000 μg per kg i.p., three times per week for 8 weeks) was “prevented hypoalgesia”, the “hyperglycemia and loss of body weight” value ([3]; 1000 μg per kg i.p., three times per week for 8 weeks (EXAMPLE XIV)) was “did not prevent hyperglycemia or loss of body weight” and the MNCV [3, 9] was 58.1±1.2 m/s. For the same substance, the SNCV [3, 9] was 54.9±1.3 m/s, the “thermal response latency (thermal hypoalgesia)” value [3, 9] was 8.8 ± 0.6 s and the “weight loss compared to diabetic animals” value ([3]; 20, 200 and 1000 μg/kg i.p., three times per week for 8 weeks) was “significant decreases in weight loss in a dose dependent manner”. The thermal response latency ([3]; 200 and 1000 μg) was “restored to control non-diabetic levels”, the “motor nerve conduction velocities” value ([3]; 200 and 1000 μg/kg, compared to untreated diabetic group and 20 μg/kg) was “enhanced motor nerve conduction velocities” and the “loss of sensory nerve conduction velocity” value ([3]; all treated groups (20, 200, 1000 μg/kg)) was “slower loss of sensory nerve conduction velocity”. For the same substance, the “thermal hypoalgesia and decline in nerve conduction velocities during 8 weeks of diabetes” value ([3]; time course study, thrice weekly 20, 200 or 1000 μg i.p.) was “attenuated by prosaptide in a dose-dependent manner”, the neurotrophic activity [4] was “have neurotrophic activity” and the “loss of thermal sensation” value [5] was “effective in inhibiting loss of thermal sensation”. The “duration of relief post injection” value [6] was “up to 48 hours”, the relief of hyperalgesia [6] was “nearly complete relief of hyperalgesia” and the “time after injection to relief” value [6] was ≤ 3 h. For the same substance, the “responses to formalin in control rats” value [7] was “without effect on responses to formalin”.
